# Active and inactive are the calls of the source. No cut-off for these calls is given here.
# Legend:
# [1] = target: T1, 3',5'-cyclic-AMP phosphodiesterase 4B (Homo sapiens, UniProt Q07343); experiment: Inhibition of human recombinant PDE4B2 expressed in baculovirus expression system using cAMP as substrate incubated for 2 hrs by HTRF assay
# [2] = system: Rattus norvegicus; experiment: Anti-bronchospastic activity in carbachol-induced bronchospasm Sprague-Dawley rat model assessed as inhibition of carbachol-induced bronchoconstriction at 3 nmol/kg, IT(Intratracheal) administered 16 hr prior to carbachol challenge; format: functional; design: scale not given: the % may be the effect or the level left
# [3] = Metabolic stability in human liver microsomes assessed as intrinsic clerance at 1 uM and measured upto 60 mins by HPLC-MS/MS analysis; format: ADME, Microsome; settings: liver microsomes, read-out: CLH
# [4] = system: Rattus norvegicus; experiment: Anti-bronchospastic activity in carbachol-induced bronchospasm Sprague-Dawley rat model assessed as inhibition of carbachol-induced bronchoconstriction administered IT(Intratracheal) for 1 hr prior to carbachol challenge; format: functional; settings: Rattus norvegicus, Sprague-Dawley, read-out: ED50
# [5] = system: Rattus norvegicus; experiment: Anti-inflammatory activity against OVA-sensitized Brown-Norway rat airway inflammation model assessed as inhibition of OVA-induced eosinophil influx administered IT(Intratracheal) 2 hrs prior to OVA challenge; format: functional
# [6] = Metabolic stability in rat plasma assessed as half life at 5 uM and measured upto 180 mins by HPLC-MS/MS analysis; format: ADME, cell-free
# [7] = Ratio of ED50 for Anti-inflammatory activity against OVA-sensitized Brown-Norway rat airway inflammation model to ED50 for Anti-bronchospastic activity in carbachol-induced bronchospasm Sprague-Dawley rat model; format: functional
# [8] = Antiinflammatory activity against LPS-stimulated rat PBMC cells assessed reduction in TNFalpha level incubated for 18 hrs by ELISA analysis; format: functional, cell-based
# [9] = Metabolic stability in rat lung S9 fraction assessed as half life at 1 uM and measured upto 60 mins in presence of NADPH by LC-MS/MS analysis; format: ADME, subcellular; settings: lung S9 fraction
# [10] = Metabolic stability in human lung S9 fraction assessed as half life at 1 uM and measured upto 60 mins in presence of NADPH by LC-MS/MS analysis; format: ADME, subcellular; settings: lung S9 fraction
# [11] = Metabolic stability in human plasma assessed as half life at 5 uM and measured upto 180 mins by HPLC-MS/MS analysis; format: ADME, cell-free
# [12] = system: Trachea; experiment: Bronchoconstriction activity in Sprague-Dawley rat trachea assessed as inhibition of carbachol-induced tracheal contraction; format: functional, tissue-based; settings: Rattus norvegicus, Sprague-Dawley, Trachea
# [13] = target: Muscarinic acetylcholine receptor M3 (Homo sapiens, UniProt P20309); experiment: Displacement of [3H]N-methylscopolamine chloride from human muscarinic M3 receptor incubated for 2 hrs by radioligand binding assay
# Chain of Muscarinic acetylcholine receptor M3 (P20309 whole entry): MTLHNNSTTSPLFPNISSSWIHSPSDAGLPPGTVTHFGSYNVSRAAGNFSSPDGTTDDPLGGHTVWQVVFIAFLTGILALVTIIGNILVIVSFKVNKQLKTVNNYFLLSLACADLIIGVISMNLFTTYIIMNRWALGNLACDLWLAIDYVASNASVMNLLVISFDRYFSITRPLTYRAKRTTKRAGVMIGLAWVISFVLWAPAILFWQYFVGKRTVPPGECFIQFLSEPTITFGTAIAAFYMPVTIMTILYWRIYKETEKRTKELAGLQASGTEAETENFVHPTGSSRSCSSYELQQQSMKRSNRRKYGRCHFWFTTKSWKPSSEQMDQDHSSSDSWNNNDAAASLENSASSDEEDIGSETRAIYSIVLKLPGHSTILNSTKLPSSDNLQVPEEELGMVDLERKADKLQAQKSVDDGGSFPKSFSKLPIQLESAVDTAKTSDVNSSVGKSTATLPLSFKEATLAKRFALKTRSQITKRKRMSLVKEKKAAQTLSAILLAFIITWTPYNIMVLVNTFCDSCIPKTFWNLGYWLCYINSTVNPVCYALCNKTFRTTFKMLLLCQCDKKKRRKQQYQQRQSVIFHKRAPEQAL
# [14] = Metabolic stability in rat liver microsomes assessed as intrinsic clerance at 1 uM and measured upto 60 mins by HPLC-MS/MS analysis; format: ADME, Microsome; settings: liver microsomes, read-out: CLH
# [15] = Antiinflammatory activity against LPS-stimulated human PBMC cells assessed reduction in TNFalpha level incubated for 18 hrs by ELISA analysis; format: functional, cell-based; settings: Homo sapiens, PBMC, 18 h
# [16] = system: Rattus norvegicus; experiment: Anti-bronchospastic activity in carbachol-induced bronchospasm Sprague-Dawley rat model assessed as inhibition of carbachol-induced bronchoconstriction at 3 nmol/kg, IT(Intratracheal) administered 1 hr prior to carbachol challenge; format: functional; design: scale not given: the % may be the effect or the level left
# [17] = target: 3',5'-cyclic-AMP phosphodiesterase 4C (Homo sapiens, UniProt Q08493); experiment: Inhibition of human recombinant PDE4C2 expressed in baculovirus expression system using cAMP as substrate by radiometric assay
# Chain of 3',5'-cyclic-AMP phosphodiesterase 4C (Q08493 whole entry): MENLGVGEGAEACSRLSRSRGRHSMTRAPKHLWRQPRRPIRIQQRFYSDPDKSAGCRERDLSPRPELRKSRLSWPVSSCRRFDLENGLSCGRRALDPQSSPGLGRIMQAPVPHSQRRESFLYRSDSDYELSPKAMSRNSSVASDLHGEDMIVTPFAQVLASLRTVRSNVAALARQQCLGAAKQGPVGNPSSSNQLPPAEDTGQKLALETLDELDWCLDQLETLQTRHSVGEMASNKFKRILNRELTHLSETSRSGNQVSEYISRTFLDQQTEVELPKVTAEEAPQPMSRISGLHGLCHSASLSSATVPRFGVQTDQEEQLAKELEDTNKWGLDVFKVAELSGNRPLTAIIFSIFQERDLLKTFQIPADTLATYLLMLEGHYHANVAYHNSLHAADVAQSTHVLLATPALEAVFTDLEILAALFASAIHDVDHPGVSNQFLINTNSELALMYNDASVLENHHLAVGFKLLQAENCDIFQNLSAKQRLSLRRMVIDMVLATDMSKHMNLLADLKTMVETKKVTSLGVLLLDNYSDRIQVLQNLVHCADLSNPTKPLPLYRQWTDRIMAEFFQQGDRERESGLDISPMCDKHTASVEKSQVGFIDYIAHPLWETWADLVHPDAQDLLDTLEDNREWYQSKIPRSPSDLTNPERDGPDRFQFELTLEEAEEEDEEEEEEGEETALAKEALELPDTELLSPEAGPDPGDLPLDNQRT
# [18] = Cmax in Sprague-Dawley rat plasma at 10 ug,IT(Intratracheal) by HPLC-MS/MS analysis; format: ADME, cell-free; design: dose 10 µg, route it(Intratracheal); settings: inhaled or intranasal
# [19] = target: cGMP-specific 3',5'-cyclic phosphodiesterase (Homo sapiens) (UniProt O76074); experiment: Inhibition of human recombinant PDE5 catalytic domain expressed in baculovirus expression system using […] as substrate at 1 uM by radiometric assay
# [20] = system: Rattus norvegicus; experiment: Anti-inflammatory activity against OVA-sensitized Brown-Norway rat airway inflammation model assessed as inhibition of OVA-induced eosinophil influx at 100 nmol/kg,IT(Intratracheal) pretreated 2 hrs prior to OVA challenge by automated cell counter analysis; format: functional; design: scale not given: the % may be the effect or the level left
# [21] = target: T1, 3',5'-cyclic-AMP phosphodiesterase 4B; experiment: Inhibition of human recombinant PDE4B2 expressed in baculovirus expression system using cAMP as substrate by radiometric assay
# [22] = Toxicity in pilocarpine hydrochloride induced salivation Sprague-Dawley rat model assessed as inhibition of salivary secretion at 1 mM,INH for 10 mins; settings: in vivo, inhaled_or_intranasal, 1000 µM
# [23] = system: Rattus norvegicus; experiment: Anti-inflammatory activity against OVA-sensitized Brown-Norway rat airway inflammation model assessed as inhibition of OVA-induced eosinophil influx administered IT(Intratracheal) pretreated 24 hrs prior to OVA challenge and measured after 48 hrs by automated cell counter analysis; format: functional; settings: time 72 hrs
# [24] = system: Rattus norvegicus; experiment: Anti-bronchospastic activity in carbachol-induced bronchospasm Sprague-Dawley rat model assessed as inhibition of carbachol-induced bronchoconstriction at 30 nmol/kg, IT(Intratracheal) administered 16 hr prior to carbachol challenge; format: functional; design: scale not given: the % may be the effect or the level left
# [25] = target: T2, Muscarinic acetylcholine receptor M2 (Homo sapiens, UniProt P08172); experiment: Displacement of [3H]N-methylscopolamine chloride from human muscarinic M2 receptor incubated for 2 hrs by radioligand binding assay
# T2 sequence (P08172 whole entry): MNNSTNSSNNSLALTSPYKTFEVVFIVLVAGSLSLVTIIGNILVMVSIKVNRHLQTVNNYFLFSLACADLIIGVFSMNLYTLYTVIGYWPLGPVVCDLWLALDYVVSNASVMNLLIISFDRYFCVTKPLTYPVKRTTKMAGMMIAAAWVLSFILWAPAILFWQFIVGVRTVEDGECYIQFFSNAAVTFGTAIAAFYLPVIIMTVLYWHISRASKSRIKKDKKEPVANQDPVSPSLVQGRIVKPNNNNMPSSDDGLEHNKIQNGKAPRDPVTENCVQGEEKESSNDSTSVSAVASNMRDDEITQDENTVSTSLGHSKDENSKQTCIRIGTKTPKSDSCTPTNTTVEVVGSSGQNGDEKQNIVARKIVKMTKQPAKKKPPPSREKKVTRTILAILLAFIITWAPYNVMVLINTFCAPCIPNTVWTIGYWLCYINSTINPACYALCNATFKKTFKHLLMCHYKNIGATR
# [26] = system: Rattus norvegicus; experiment: Anti-inflammatory activity against OVA-sensitized Brown-Norway rat airway inflammation model assessed as inhibition of OVA-induced eosinophil influx at 1 nmol/kg,IT(Intratracheal) pretreated 2 hrs prior to OVA challenge by automated cell counter analysis; format: functional; design: scale not given: the % may be the effect or the level left
# [27] = Toxicity in pilocarpine hydrochloride induced salivation Sprague-Dawley rat model assessed as inhibition of salivary secretion at 3 mM,INH for 10 mins; settings: in vivo, inhaled_or_intranasal, 10 min, 3000 µM
# [28] = Toxicity in ferret assessed as appearance of nausea-like behavior at 10 nmol/kg,po and measured for 4 hrs by behavioral analysis; design: species or system Mustela putorius furo; settings: in vivo
# [29] = Cmax in Sprague-Dawley rat lung at 10 ug,IT(Intratracheal) by HPLC-MS/MS analysis; format: ADME, tissue-based; design: dose 10 µg, route it(Intratracheal); settings: inhaled or intranasal
# [30] = Toxicity in ferret assessed as appearance of nausea-like behavior at 10 nmol/kg, IT(Intratracheal) and measured for 4 hrs by behavioral analysis; design: species or system Mustela putorius furo; settings: in vivo, inhaled_or_intranasal
# [31] = Solubility of compound simulated lung fluid at 1 mg/ml and measured at 2 hr by UPLC-MS analysis; format: physicochemical
# [32] = Half life in Sprague-Dawley rat lung at 10 ug,IT(Intratracheal) by HPLC-MS/MS analysis; format: ADME, tissue-based; settings: inhaled or intranasal, dose 10 µg
# [33] = Toxicity in ferret assessed as emetic response at 10 nmol/kg, IT(Intratracheal) and measured for 4 hrs by behavioral analysis; design: species or system Mustela putorius furo; settings: in vivo, inhaled_or_intranasal
# [34] = AUClast in Sprague-Dawley rat plasma at 10 ug,IT(Intratracheal) by HPLC-MS/MS analysis; format: ADME, cell-free; design: dose 10 µg, route it(Intratracheal); settings: inhaled or intranasal
# [35] = AUC (0 to infinity) in Sprague-Dawley rat lung at 10 ug,IT(Intratracheal) by HPLC-MS/MS analysis; format: ADME, tissue-based; design: dose 10 µg, route it(Intratracheal); settings: in vivo, inhaled_or_intranasal
# [36] = system: Rattus norvegicus; experiment: Anti-bronchospastic activity in carbachol-induced bronchospasm Sprague-Dawley rat model assessed as inhibition of carbachol-induced bronchoconstriction at 30 nmol/kg, IT(Intratracheal) administered 1 hr prior to carbachol challenge; format: functional; design: scale not given: the % may be the effect or the level left
# [37] = target: 3',5'-cyclic-AMP phosphodiesterase 4D (Homo sapiens, UniProt Q08499); experiment: Inhibition of human recombinant PDE4D3 expressed in baculovirus expression system using cAMP as substrate by radiometric assay
# [38] = target: cGMP-inhibited 3',5'-cyclic phosphodiesterase 3A (Homo sapiens) (UniProt Q14432); experiment: Inhibition of human recombinant PDE3A expressed in baculovirus expression system using cAMP as substrate at 1 uM by radiometric assay
# Chain of cGMP-inhibited 3',5'-cyclic phosphodiesterase 3A (Homo sapiens) (Q14432 whole entry): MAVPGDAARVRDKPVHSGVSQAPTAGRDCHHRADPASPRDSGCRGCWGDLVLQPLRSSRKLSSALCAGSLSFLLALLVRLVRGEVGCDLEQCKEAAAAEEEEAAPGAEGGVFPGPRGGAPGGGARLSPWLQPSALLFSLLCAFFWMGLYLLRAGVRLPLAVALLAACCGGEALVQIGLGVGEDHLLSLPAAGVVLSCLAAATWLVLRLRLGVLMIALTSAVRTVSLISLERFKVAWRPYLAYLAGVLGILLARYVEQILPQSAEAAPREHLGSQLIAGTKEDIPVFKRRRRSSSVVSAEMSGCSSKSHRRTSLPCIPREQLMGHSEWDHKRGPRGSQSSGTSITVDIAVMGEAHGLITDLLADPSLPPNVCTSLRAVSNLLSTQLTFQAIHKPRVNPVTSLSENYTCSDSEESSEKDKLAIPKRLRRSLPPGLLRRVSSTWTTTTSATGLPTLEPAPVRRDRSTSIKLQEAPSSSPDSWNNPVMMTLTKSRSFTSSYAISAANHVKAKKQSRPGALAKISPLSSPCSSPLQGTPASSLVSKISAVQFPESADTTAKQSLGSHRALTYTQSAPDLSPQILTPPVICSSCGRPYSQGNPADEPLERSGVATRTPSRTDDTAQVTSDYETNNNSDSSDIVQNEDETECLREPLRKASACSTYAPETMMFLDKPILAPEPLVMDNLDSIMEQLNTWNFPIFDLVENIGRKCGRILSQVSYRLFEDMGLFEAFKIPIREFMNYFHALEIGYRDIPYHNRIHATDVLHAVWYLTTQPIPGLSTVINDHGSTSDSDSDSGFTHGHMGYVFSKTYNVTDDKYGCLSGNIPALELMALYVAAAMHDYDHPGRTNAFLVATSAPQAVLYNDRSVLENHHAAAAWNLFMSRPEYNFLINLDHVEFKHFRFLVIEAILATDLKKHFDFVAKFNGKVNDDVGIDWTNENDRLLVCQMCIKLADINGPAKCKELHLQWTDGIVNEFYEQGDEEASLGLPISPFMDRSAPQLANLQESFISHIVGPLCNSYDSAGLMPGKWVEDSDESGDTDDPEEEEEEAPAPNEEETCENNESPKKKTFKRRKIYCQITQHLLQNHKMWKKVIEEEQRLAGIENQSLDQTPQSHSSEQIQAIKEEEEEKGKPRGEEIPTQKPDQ
# [39] = target: Dual specificity calcium/calmodulin-dependent 3',5'-cyclic nucleotide phosphodiesterase 1A (Homo sapiens) (UniProt P54750); experiment: Inhibition of human recombinant PDE1A3 expressed in baculovirus expression system using cAMP as substrate at 1 uM by radiometric assay
# Chain of Dual specificity calcium/calmodulin-dependent 3',5'-cyclic nucleotide phosphodiesterase 1A (Homo sapiens) (P54750 whole entry): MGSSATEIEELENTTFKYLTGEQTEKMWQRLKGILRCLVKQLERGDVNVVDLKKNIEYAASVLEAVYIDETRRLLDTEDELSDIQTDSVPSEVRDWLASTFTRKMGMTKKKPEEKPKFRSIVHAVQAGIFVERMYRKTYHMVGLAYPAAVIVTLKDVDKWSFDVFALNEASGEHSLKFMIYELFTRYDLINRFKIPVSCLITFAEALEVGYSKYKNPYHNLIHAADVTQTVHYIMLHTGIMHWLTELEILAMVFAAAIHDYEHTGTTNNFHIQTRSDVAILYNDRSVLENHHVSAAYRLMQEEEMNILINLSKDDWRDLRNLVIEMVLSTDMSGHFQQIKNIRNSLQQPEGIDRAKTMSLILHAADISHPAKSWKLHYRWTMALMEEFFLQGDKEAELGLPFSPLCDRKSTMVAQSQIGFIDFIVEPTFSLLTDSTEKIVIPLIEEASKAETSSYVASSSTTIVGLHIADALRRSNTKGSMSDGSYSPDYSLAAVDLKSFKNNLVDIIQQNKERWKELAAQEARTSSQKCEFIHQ
# [40] = Solubility of compound simulated lung fluid at 1 mg/ml and measured at 0 hr by UPLC-MS analysis; format: physicochemical
# [41] = system: Rattus norvegicus; experiment: Anti-inflammatory activity against OVA-sensitized Brown-Norway rat airway inflammation model assessed as inhibition of OVA-induced eosinophil influx at 10 nmol/kg,IT(Intratracheal) pretreated 24 hrs prior to OVA challenge and measured after 48 hrs by automated cell counter analysis; format: functional; design: scale not given: the % may be the effect or the level left
# [42] = system: Rattus norvegicus; experiment: Anti-inflammatory activity against OVA-sensitized Brown-Norway rat airway inflammation model assessed as inhibition of OVA-induced eosinophil influx in BALF at 30 nmol/kg, IT(Intratracheal) pretreated 24 hrs prior to OVA challenge and measured after 48 hrs by automated cell counter analysis; format: functional; design: scale not given: the % may be the effect or the level left
# [43] = target: 3',5'-cyclic-AMP phosphodiesterase 4A (Homo sapiens, UniProt P27815); experiment: Inhibition of human recombinant PDE4A4 expressed in baculovirus expression system using cAMP as substrate by radiometric assay
# Chain of 3',5'-cyclic-AMP phosphodiesterase 4A (P27815 whole entry): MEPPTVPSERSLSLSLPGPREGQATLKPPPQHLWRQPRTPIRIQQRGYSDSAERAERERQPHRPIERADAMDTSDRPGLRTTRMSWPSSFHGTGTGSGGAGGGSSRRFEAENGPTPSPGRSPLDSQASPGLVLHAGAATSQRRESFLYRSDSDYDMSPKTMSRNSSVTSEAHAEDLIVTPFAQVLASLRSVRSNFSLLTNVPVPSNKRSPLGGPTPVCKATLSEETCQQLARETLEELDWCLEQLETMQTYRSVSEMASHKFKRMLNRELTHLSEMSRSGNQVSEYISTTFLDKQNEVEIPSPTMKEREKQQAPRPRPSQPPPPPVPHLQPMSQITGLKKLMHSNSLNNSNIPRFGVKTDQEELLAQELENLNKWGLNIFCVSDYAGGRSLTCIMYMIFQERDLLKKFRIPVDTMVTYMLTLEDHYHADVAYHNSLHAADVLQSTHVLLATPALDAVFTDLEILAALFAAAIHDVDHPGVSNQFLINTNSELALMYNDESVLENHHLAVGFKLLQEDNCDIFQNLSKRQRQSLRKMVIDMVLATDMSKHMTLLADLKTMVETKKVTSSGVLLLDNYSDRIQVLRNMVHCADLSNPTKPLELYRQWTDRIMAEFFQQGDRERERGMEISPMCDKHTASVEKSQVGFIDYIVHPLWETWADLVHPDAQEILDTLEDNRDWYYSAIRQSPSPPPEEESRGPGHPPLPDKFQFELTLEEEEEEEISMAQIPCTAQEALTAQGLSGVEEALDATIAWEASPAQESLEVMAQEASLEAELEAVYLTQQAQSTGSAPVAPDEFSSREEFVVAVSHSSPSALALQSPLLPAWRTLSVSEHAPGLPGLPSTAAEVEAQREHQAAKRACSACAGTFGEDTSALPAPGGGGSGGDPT
# [44] = system: Rattus norvegicus; experiment: Anti-inflammatory activity against OVA-sensitized Brown-Norway rat airway inflammation model assessed as inhibition of OVA-induced eosinophil influx at 10 nmol/kg,IT(Intratracheal) pretreated 2 hrs prior to OVA challenge by automated cell counter analysis; format: functional; design: scale not given: the % may be the effect or the level left
# [45] = Toxicity in ferret assessed as emetic response at 10 nmol/kg,po and measured for 4 hrs by behavioral analysis; design: species or system Mustela putorius furo; settings: in vivo
# [46] = system: Rattus norvegicus; experiment: Anti-inflammatory activity against OVA-sensitized Brown-Norway rat airway inflammation model assessed as inhibition of OVA-induced eosinophil influx at 100 nmol/kg,IT(Intratracheal) pretreated 24 hrs prior to OVA challenge and measured after 48 hrs by automated cell counter analysis; format: functional; design: scale not given: the % may be the effect or the level left; settings: time 72 hrs
# [47] = system: Rattus norvegicus; experiment: Anti-inflammatory activity against OVA-sensitized Brown-Norway rat airway inflammation model assessed as inhibition of OVA-induced eosinophil influx at 1000 nmol/kg,IT(Intratracheal) pretreated 24 hrs prior to OVA challenge and measured after 48 hrs by automated cell counter analysis; format: functional; design: scale not given: the % may be the effect or the level left; settings: time 72 hrs
# T1 sequence (Q07343 whole entry): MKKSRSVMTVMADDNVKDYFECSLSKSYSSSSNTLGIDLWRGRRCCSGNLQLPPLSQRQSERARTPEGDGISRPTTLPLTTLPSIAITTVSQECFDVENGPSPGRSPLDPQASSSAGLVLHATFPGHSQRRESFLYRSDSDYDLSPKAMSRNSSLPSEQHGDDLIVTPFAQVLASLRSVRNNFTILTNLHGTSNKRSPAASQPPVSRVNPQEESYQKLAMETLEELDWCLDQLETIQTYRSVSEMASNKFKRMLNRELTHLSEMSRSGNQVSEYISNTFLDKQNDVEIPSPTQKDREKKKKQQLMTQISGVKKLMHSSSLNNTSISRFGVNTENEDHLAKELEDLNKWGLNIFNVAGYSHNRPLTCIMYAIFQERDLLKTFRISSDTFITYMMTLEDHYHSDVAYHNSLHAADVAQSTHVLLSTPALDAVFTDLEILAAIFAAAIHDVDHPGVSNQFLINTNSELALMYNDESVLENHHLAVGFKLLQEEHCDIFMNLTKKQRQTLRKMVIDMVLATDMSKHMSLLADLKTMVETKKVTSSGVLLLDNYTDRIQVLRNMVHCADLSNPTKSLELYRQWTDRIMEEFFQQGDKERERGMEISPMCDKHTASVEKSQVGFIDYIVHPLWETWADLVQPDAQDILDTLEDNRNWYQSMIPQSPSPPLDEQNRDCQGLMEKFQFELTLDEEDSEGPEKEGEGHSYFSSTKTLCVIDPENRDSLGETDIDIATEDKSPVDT
smiles,measurement,setting,value
COc1ccc([C@H](Cc2c(Cl)c[n+]([O-])cc2Cl)OC(=O)c2ccc(CN[C@@H](C(=O)O[C@H]3CN4CCC3CC4)c3ccccc3)s2)cc1OC,IC50,[1],1.58 nM
same,Activity,[2],67%
same,microsomal CLint at 1 µM,[3],213 µL/min/mg
same,ED50,[4],0.0007 µmol/kg
same,ED50,[5],0.03 µmol/kg
same,half-life at 5 µM,[6],9 min
same,Ratio ED50,[7],42
same,IC50,[8],2 nM
same,half-life at 1 µM,[9],15 min
same,half-life at 1 µM,[10],69 min
same,half-life at 5 µM,[11],11 min
same,IC50,[12],1 nM
same,Ki,[13],0.0631 nM
same,microsomal CLint at 1 µM,[14],126 µL/min/mg
same,IC50,[15],1.58 nM
same,Activity,[16],74%
CCOc1cc([C@H](Cc2c(Cl)c[n+]([O-])cc2Cl)OC(=O)c2ccc(CN[C@@](CO)(C(=O)O[C@H]3CN4CCC3CC4)c3ccccc3)s2)ccc1OC,IC50,[17],0.0251 nM
same,IC50,[1],1 nM
same,Cmax,[18],2 ng/mL
same,ED50,[4],0.007 µmol/kg
same,inhibition,[19],inactive
same,Activity,[20],92%
same,IC50,[21],0.0398 nM
same,Activity,[22],Non-Toxic
same,ED50,[23],0.016 µmol/kg
same,Activity,[24],83%
same,Ki,[25],10 nM
same,ED50,[5],0.007 µmol/kg
same,Ratio ED50,[7],1
same,Activity,[26],28%
same,Activity,[27],Non-Toxic
same,Activity,[28],Non-Toxic
same,Cmax,[29],6270 ng/g
same,Activity,[30],Non-Toxic
same,solubility at 2 h,[31],1.6 µg/mL
same,half-life,[32],258 min
same,Activity,[33],Non-Toxic
same,AUC(0-t),[34],3.7 ng·h/mL
same,AUC,[35],9242 ng·h/g
same,Activity,[36],80%
same,IC50,[37],0.398 nM
same,inhibition,[38],inactive
same,inhibition,[39],inactive
same,solubility at 0 h,[40],3.3 µg/mL
same,Activity,[41],45%
same,Activity,[42],63%
same,IC50,[12],12.6 nM
same,Ki,[13],0.631 nM
same,IC50,[43],0.0316 nM
same,Activity,[44],60%
same,IC50,[15],0.316 nM
same,Activity,[45],Non-Toxic
same,Activity,[46],72%
same,Activity,[47],>100%

# Reference: ChEMBL document CHEMBL5360646, “Optimization of M3 Antagonist-PDE4 Inhibitor (MAPI) Dual Pharmacology Molecules for the Treatment of COPD” (J Med Chem, 2023)
